# According to ChEMBL document CHEMBL3862033 (J Med Chem, 2016):
# Biological target: 5-hydroxytryptamine receptor 5A (Homo sapiens) (UniProt P47898)
# Test: Displacement of [3H]LSD from human 5-HT5A receptor expressed in Flp-In-CHO cell membranes incubated for 90 mins under dark condition by microbeta scintillation counting method relative to control
# Design: concentration or dose not given beside the values
# Conditions: not given
# Chain of 5-hydroxytryptamine receptor 5A (Homo sapiens) (P47898 whole entry): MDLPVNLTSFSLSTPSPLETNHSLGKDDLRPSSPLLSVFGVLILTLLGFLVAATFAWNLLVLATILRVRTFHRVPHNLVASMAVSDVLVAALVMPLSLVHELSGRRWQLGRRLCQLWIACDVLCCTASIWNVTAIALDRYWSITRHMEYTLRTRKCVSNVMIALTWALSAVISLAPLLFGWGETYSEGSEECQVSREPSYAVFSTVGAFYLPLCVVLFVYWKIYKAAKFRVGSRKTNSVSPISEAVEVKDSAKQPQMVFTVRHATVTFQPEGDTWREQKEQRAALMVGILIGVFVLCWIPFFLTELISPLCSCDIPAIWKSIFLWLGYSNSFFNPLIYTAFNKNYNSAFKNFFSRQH
row,Compound,inhibition
1,CNC(=O)[C@H]1O[C@@H](n2cnc3c(NCc4cccc(I)c4)ncnc32)[C@H](O)[C@@H]1O [IB-MECA],< 50%
2,CC(C)[C@H](Nc1nc(Cl)nc2c1ncn2[C@H]1[C@H](O)[C@H](O)[C@]2(CO)C[C@H]12)C1CC1,< 50%

# Biological target: T1, Adenosine receptor A1 (Homo sapiens, UniProt P30542)
# T1 sequence (P30542 whole entry): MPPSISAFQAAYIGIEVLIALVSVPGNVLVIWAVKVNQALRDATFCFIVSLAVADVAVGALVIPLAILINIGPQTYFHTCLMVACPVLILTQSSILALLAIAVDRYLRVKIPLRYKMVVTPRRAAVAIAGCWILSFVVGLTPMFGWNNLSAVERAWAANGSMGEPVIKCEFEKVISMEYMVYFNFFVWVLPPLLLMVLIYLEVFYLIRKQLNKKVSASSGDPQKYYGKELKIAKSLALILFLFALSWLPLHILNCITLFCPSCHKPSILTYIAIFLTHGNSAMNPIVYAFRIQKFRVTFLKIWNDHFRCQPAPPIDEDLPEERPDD
# Test: Displacement of [3H]N6-phenylisopropyladenosine from recombinant human A1AR expressed in CHO cell membranes after 60 mins by liquid scintillation counting method
# Conditions: not given
row,Compound,Ki
1,CC(C)[C@H](Nc1nc(Cl)nc2c1ncn2[C@H]1[C@H](O)[C@H](O)[C@]2(CO)C[C@H]12)C1CC1,104 nM

# Biological target: 5-hydroxytryptamine receptor 4 (Homo sapiens) (UniProt Q13639)
# Test: Displacement of [3H]GR113808 from human 5-HT4 receptor at 10 uM incubated for 90 mins under dark condition by microbeta scintillation counting method relative to control
# Conditions: not given
# Chain of 5-hydroxytryptamine receptor 4 (Homo sapiens) (Q13639 whole entry): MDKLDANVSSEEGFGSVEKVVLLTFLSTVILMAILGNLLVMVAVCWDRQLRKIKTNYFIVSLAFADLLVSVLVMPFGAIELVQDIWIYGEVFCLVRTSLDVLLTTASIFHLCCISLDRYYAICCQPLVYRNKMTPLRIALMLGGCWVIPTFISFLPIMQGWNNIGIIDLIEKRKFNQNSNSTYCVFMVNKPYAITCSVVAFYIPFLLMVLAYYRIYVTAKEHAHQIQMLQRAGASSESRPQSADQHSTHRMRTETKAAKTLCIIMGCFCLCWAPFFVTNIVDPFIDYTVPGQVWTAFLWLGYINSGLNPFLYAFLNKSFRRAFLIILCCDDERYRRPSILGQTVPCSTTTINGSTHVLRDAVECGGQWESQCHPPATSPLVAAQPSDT
row,Compound,inhibition
1,CNC(=O)[C@H]1O[C@@H](n2cnc3c(NCc4cccc(I)c4)ncnc32)[C@H](O)[C@@H]1O [IB-MECA],< 50%
2,CC(C)[C@H](Nc1nc(Cl)nc2c1ncn2[C@H]1[C@H](O)[C@H](O)[C@]2(CO)C[C@H]12)C1CC1,< 50%

# Biological target: 5-hydroxytryptamine receptor 2B (Homo sapiens, UniProt P41595)
# Conditions: HEK293, at 10 µM
# Chain of 5-hydroxytryptamine receptor 2B (P41595 whole entry): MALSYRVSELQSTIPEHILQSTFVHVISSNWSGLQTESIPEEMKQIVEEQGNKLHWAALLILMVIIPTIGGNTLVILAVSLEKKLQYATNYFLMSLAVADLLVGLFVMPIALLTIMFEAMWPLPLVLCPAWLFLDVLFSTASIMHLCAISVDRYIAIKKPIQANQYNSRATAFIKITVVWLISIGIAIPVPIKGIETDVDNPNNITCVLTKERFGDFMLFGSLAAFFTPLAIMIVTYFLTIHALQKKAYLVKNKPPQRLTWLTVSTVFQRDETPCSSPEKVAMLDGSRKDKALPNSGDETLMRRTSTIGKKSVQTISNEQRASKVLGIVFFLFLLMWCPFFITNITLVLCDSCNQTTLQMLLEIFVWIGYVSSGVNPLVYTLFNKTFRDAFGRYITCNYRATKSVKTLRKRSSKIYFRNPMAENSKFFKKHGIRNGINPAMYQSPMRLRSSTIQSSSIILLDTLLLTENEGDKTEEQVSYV
row,Compound,inhibition
1,CNC(=O)[C@H]1O[C@@H](n2cnc3c(NCc4cccc(I)c4)ncnc32)[C@H](O)[C@@H]1O [IB-MECA],> 50%

# Biological target: T2, 5-hydroxytryptamine receptor 2A (Homo sapiens, UniProt P28223)
# Test: Displacement of [3H]ketanserin from human 5-HT2A receptor expressed in HEK-T cell membranes incubated for 90 mins under dark condition by microbeta scintillation counting method
# Conditions: not given
# T2 sequence (P28223 whole entry): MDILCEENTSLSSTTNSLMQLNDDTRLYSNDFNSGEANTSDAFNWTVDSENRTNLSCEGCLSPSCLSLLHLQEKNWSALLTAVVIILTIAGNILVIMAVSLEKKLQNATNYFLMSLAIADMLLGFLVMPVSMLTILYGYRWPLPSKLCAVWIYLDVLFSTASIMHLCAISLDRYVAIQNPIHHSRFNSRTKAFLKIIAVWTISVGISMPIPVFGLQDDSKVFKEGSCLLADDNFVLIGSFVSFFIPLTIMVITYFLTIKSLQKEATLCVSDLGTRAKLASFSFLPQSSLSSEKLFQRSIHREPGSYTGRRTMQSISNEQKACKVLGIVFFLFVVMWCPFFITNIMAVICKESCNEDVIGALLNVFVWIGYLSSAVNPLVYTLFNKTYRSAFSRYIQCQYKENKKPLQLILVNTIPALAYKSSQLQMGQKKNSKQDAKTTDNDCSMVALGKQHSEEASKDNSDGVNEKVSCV
row,Compound,Ki
1,CNC(=O)[C@H]1O[C@@H](n2cnc3c(NCc4cccc(I)c4)ncnc32)[C@H](O)[C@@H]1O [IB-MECA],> 10000 nM
2,CC(C)[C@H](Nc1nc(Cl)nc2c1ncn2[C@H]1[C@H](O)[C@H](O)[C@]2(CO)C[C@H]12)C1CC1,> 10000 nM

# Biological target: 5-hydroxytryptamine receptor 1B (Homo sapiens) (UniProt P28222)
# Test: Displacement of [3H]5-CT from human 5-HT1BR expressed in HEK cell membranes at 10 uM incubated for 90 mins under dark condition by microbeta scintillation counting method relative to control
# Conditions: HEK293
# Chain of 5-hydroxytryptamine receptor 1B (Homo sapiens) (P28222 whole entry): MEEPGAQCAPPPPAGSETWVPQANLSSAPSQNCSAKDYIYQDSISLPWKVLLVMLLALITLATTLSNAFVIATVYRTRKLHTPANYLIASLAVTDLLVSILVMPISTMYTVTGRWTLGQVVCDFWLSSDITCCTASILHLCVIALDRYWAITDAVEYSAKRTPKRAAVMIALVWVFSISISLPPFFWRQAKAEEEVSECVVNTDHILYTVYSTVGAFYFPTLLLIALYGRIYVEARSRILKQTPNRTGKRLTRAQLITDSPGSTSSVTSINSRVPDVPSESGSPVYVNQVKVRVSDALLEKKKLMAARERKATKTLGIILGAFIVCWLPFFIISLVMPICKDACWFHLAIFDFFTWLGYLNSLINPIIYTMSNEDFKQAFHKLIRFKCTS
row,Compound,inhibition
1,CNC(=O)[C@H]1O[C@@H](n2cnc3c(NCc4cccc(I)c4)ncnc32)[C@H](O)[C@@H]1O [IB-MECA],< 50%
2,CC(C)[C@H](Nc1nc(Cl)nc2c1ncn2[C@H]1[C@H](O)[C@H](O)[C@]2(CO)C[C@H]12)C1CC1,< 50%

# Biological target: T3, 5-hydroxytryptamine receptor 1A (Homo sapiens) (UniProt P08908)
# T3 sequence (whole entry): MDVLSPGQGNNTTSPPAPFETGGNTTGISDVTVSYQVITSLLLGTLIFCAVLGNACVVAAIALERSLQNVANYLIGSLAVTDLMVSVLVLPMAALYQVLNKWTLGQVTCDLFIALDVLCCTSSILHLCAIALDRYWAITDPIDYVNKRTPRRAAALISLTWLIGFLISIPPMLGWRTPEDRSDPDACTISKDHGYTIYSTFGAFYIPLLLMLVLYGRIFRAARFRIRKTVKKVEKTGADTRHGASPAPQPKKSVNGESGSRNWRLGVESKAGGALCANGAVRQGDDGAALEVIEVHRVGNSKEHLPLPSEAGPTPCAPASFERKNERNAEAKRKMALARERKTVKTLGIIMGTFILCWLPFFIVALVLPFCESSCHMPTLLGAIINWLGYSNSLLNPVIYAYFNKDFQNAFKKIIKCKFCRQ
# Test: Displacement of [3H]WAY100635 from human 5-HT1AR expressed in CHO cell membranes at 10 uM incubated for 90 mins under dark condition by microbeta scintillation counting method relative to control
# Conditions: not given
row,Compound,inhibition
1,CNC(=O)[C@H]1O[C@@H](n2cnc3c(NCc4cccc(I)c4)ncnc32)[C@H](O)[C@@H]1O [IB-MECA],< 50%
2,CC(C)[C@H](Nc1nc(Cl)nc2c1ncn2[C@H]1[C@H](O)[C@H](O)[C@]2(CO)C[C@H]12)C1CC1,< 50%

# Biological target: T4, 5-hydroxytryptamine receptor 3A (Homo sapiens) (UniProt P46098)
# T4 sequence (whole entry): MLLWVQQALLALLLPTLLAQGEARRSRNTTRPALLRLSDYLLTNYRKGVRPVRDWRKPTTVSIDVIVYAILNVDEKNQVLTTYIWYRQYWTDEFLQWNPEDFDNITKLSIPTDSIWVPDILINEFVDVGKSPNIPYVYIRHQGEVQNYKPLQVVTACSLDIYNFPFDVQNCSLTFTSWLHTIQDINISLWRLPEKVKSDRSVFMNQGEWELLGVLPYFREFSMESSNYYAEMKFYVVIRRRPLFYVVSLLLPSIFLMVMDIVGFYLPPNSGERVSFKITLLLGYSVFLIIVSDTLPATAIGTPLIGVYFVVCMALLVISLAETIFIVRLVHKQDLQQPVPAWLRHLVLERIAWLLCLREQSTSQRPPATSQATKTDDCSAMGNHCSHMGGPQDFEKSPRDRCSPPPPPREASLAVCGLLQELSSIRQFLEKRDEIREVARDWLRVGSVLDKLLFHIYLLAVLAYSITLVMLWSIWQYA
# Test: Displacement of [3H]GR65630 from human 5-HT3 receptor expressed in HEK-T cell membranes at 10 uM incubated for 90 mins under dark condition by microbeta scintillation counting method relative to control
# Conditions: not given
row,Compound,inhibition
1,CNC(=O)[C@H]1O[C@@H](n2cnc3c(NCc4cccc(I)c4)ncnc32)[C@H](O)[C@@H]1O [IB-MECA],< 50%
2,CC(C)[C@H](Nc1nc(Cl)nc2c1ncn2[C@H]1[C@H](O)[C@H](O)[C@]2(CO)C[C@H]12)C1CC1,< 50%

# Biological target: T2, 5-hydroxytryptamine receptor 2A
# Test: Displacement of [3H]ketanserin from human 5-HT2A receptor expressed in HEK-T cell membranes at 10 uM incubated for 90 mins under dark condition by microbeta scintillation counting method relative to control
# Conditions: not given
row,Compound,inhibition
1,CNC(=O)[C@H]1O[C@@H](n2cnc3c(NCc4cccc(I)c4)ncnc32)[C@H](O)[C@@H]1O [IB-MECA],< 10%
2,CC(C)[C@H](Nc1nc(Cl)nc2c1ncn2[C@H]1[C@H](O)[C@H](O)[C@]2(CO)C[C@H]12)C1CC1,< 10%

# Biological target: 5-hydroxytryptamine receptor 7 (Homo sapiens) (UniProt P34969)
# Test: Displacement of [3H]LSD from human 5-HT7A receptor expressed in HEK cell membranes at 10 uM incubated for 90 mins under dark condition by microbeta scintillation counting method relative to control
# Conditions: HEK293
# Chain of 5-hydroxytryptamine receptor 7 (Homo sapiens) (P34969 whole entry): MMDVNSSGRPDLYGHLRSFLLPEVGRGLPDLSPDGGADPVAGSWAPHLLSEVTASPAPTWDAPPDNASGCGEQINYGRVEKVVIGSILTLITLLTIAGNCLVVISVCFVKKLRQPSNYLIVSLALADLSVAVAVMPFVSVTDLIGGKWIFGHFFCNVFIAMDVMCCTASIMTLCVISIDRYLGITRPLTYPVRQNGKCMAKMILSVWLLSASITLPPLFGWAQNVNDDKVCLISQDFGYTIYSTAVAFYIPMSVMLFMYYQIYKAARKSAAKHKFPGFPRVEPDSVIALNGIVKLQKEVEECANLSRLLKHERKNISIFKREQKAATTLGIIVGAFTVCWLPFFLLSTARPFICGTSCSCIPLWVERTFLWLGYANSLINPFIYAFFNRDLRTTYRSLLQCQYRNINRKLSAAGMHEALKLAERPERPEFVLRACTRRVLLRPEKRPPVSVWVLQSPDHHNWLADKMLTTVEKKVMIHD
row,Compound,inhibition
1,CNC(=O)[C@H]1O[C@@H](n2cnc3c(NCc4cccc(I)c4)ncnc32)[C@H](O)[C@@H]1O [IB-MECA],< 50%
2,CC(C)[C@H](Nc1nc(Cl)nc2c1ncn2[C@H]1[C@H](O)[C@H](O)[C@]2(CO)C[C@H]12)C1CC1,< 50%

# Biological target: T5, 5-hydroxytryptamine receptor 2C (Homo sapiens, UniProt P28335)
# T5 sequence (P28335 whole entry): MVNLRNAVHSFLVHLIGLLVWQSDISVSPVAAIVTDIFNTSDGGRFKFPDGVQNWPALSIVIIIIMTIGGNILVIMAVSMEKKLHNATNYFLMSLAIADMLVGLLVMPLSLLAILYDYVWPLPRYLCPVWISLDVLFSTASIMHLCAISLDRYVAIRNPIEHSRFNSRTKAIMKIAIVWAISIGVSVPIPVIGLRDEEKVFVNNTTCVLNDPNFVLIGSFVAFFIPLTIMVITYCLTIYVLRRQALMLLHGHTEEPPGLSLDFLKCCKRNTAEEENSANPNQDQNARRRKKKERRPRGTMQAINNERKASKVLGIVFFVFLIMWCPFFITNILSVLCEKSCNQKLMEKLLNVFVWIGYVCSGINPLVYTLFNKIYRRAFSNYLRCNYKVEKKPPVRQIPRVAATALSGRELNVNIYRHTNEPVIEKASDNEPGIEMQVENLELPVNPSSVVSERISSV
# Test: Displacement of [3H]mesulergine from human 5-HT2CR expressed in Flp-In HEK cell membranes incubated for 90 mins under dark condition by microbeta scintillation counting method
# Design: species or system HEK293
# Conditions: not given
row,Compound,Ki
1,CC(C)[C@H](Nc1nc(Cl)nc2c1ncn2[C@H]1[C@H](O)[C@H](O)[C@]2(CO)C[C@H]12)C1CC1,672 nM

# Biological target: T6, Adenosine receptor A3 (Homo sapiens, UniProt P0DMS8)
# T6 sequence (P0DMS8 whole entry): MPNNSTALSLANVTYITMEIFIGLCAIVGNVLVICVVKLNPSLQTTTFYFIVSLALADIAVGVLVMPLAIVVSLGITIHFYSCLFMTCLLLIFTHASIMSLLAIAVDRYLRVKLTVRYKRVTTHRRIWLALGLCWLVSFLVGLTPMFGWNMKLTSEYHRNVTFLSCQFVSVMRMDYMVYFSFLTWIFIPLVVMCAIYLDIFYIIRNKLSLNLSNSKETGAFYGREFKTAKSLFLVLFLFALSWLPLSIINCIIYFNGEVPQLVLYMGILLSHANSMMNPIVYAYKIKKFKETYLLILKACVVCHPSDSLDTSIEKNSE
# Test: Displacement of [125l]N 6-(4-amino-3-iodobenzyl)adenosine-5'-N-methyluronamide from recombinant human A3AR expressed in CHO cell membranes after 60 mins by gamma counting method
# Conditions: not given
row,Compound,Ki
1,CC(C)[C@H](Nc1nc(Cl)nc2c1ncn2[C@H]1[C@H](O)[C@H](O)[C@]2(CO)C[C@H]12)C1CC1,3450 nM

# Biological target: 5-hydroxytryptamine receptor 6 (Homo sapiens) (UniProt P50406)
# Test: Displacement of [3H]LSD from human 5-HT6 receptor expressed in HEK cell membranes at 10 uM incubated for 90 mins under dark condition by microbeta scintillation counting method relative to control
# Conditions: HEK293
# Chain of 5-hydroxytryptamine receptor 6 (Homo sapiens) (P50406 whole entry): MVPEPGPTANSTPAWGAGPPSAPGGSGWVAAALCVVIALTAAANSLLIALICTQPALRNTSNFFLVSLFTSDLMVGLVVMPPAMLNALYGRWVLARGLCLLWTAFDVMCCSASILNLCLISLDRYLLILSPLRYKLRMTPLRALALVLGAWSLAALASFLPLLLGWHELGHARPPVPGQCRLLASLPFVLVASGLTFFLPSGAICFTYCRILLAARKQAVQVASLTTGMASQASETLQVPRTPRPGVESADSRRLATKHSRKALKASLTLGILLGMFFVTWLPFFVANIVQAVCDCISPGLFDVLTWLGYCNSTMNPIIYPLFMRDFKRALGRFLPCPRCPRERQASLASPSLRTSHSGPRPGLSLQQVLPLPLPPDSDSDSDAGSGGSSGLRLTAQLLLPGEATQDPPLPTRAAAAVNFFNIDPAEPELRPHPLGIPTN
row,Compound,inhibition
1,CNC(=O)[C@H]1O[C@@H](n2cnc3c(NCc4cccc(I)c4)ncnc32)[C@H](O)[C@@H]1O [IB-MECA],< 50%
2,CC(C)[C@H](Nc1nc(Cl)nc2c1ncn2[C@H]1[C@H](O)[C@H](O)[C@]2(CO)C[C@H]12)C1CC1,< 50%

# Biological target: 5-hydroxytryptamine receptor 1D (Homo sapiens) (UniProt P28221)
# Test: Displacement of [3H]5-CT from human 5-HT1D receptor expressed in HEK-T cell membranes at 10 uM incubated for 90 mins under dark condition by microbeta scintillation counting method relative to control
# Conditions: not given
# Chain of 5-hydroxytryptamine receptor 1D (Homo sapiens) (P28221 whole entry): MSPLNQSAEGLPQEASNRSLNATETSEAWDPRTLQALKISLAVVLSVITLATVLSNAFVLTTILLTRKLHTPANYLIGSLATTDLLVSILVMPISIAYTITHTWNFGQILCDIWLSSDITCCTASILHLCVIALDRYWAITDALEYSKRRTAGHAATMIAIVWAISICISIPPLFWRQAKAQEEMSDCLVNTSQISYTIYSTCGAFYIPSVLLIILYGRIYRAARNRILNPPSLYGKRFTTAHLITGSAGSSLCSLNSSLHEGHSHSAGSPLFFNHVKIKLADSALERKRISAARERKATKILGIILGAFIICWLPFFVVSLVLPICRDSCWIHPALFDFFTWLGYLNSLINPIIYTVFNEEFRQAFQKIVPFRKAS
row,Compound,inhibition
1,CNC(=O)[C@H]1O[C@@H](n2cnc3c(NCc4cccc(I)c4)ncnc32)[C@H](O)[C@@H]1O [IB-MECA],< 50%
2,CC(C)[C@H](Nc1nc(Cl)nc2c1ncn2[C@H]1[C@H](O)[C@H](O)[C@]2(CO)C[C@H]12)C1CC1,< 50%

# Biological target: T7, 5-hydroxytryptamine receptor 2C (Homo sapiens) (UniProt P28335)
# T7 sequence (whole entry): T5 sequence (P28335 whole entry)
# Test: Displacement of [3H]mesulergine from human 5-HT2CR expressed in Flp-In HEK cell membranes at 10 uM incubated for 90 mins under dark condition by microbeta scintillation counting method relative to control
# Conditions: HEK293
row,Compound,inhibition
1,CNC(=O)[C@H]1O[C@@H](n2cnc3c(NCc4cccc(I)c4)ncnc32)[C@H](O)[C@@H]1O [IB-MECA],> 50%
2,CC(C)[C@H](Nc1nc(Cl)nc2c1ncn2[C@H]1[C@H](O)[C@H](O)[C@]2(CO)C[C@H]12)C1CC1,> 50%

# Biological target: 5-hydroxytryptamine receptor 1E (Homo sapiens) (UniProt P28566)
# Test: Displacement of [3H]5-HT from human 5-HT1E receptor expressed in HEK cell membranes at 10 uM incubated for 90 mins under dark condition by microbeta scintillation counting method relative to control
# Conditions: HEK293
# Chain of 5-hydroxytryptamine receptor 1E (Homo sapiens) (P28566 whole entry): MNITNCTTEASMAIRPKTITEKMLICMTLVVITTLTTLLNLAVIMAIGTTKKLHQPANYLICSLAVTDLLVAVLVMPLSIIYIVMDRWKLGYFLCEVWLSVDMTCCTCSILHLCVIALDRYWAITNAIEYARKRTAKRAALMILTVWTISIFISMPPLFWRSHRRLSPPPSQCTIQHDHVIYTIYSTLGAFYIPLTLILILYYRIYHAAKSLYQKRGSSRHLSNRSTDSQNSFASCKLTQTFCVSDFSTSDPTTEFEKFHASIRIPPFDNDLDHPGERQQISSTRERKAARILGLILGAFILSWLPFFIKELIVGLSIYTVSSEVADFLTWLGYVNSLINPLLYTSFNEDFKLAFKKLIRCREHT
row,Compound,inhibition
1,CNC(=O)[C@H]1O[C@@H](n2cnc3c(NCc4cccc(I)c4)ncnc32)[C@H](O)[C@@H]1O [IB-MECA],< 50%
2,CC(C)[C@H](Nc1nc(Cl)nc2c1ncn2[C@H]1[C@H](O)[C@H](O)[C@]2(CO)C[C@H]12)C1CC1,< 50%
